Measurements: ChEMBL document CHEMBL6182924, “Discovery of a Novel and Potent MET Transcription Inhibitor Targeting Promoter G-Quadruplex for the Treatment of NSCLC” (J Med Chem, 2025)
Activity calls are given as the source filed them. The rule behind the calls is not given here.

Legend:
[1] = test system: A549; test: Antiproliferative activity against human A549 cells incubated for 3 days by CCK-8 assay; type: functional, cell-based; settings: A549, 72 h
[2] = test system: A549; test: Antitumor activity against human A549 cells xenografted in BALB/c mouse assessed as tumor growth inhibition at 20 mg/kg, po administered once a day and measured up to 24 days; type: functional; settings: A549, 576 h, time <= 24 day, read-out: TGI
[3] = test system: BaF3; test: Antiproliferative activity against mouse BaF3 cells harboring TPR-MET L1195V mutant incubated for 24 hrs by CCK-8 assay; type: functional, cell-based; settings: BaF3, 24 h
[4] = test system: BaF3; test: Antiproliferative activity against mouse BaF3 cells harboring TPR-MET […] mutant incubated for 24 hrs by CCK-8 assay; type: functional, cell-based; settings: BaF3, 24 h
[5] = test system: BaF3; test: Antiproliferative activity against mouse BaF3 cells harboring TPR-MET D1228N mutant incubated for 24 hrs by CCK-8 assay; type: functional, cell-based; settings: BaF3, 24 h
[6] = test system: Quadruplex DNA; test: Binding affinity to G-quadruplex DNA (unknown origin) at 5 uM by fluorescence quenching analysis; type: nucleic-acid assay
[7] = test system: A549; test: Downregulation of c-MYC expression in human A549 cells up to 2000 nM incubated for 72 hrs by Western blot analysis; type: functional, cell-based

SMILES | IC50 [1] | other results
COc1cc2nccc(Oc3ccc(NC(=O)C4(C(=O)Nc5ccc(F)cc5)CC4)cc3)c2cc1OC [CABOZANTINIB] | 4400 nM | inhibition in vivo at 20 mg/kg [2]: 51.7%; IC50 [3]: 920 nM; IC50 [4]: 3980 nM; IC50 [5]: 5840 nM
O=C(Nc1cccc(-c2cc3cccnc3c3ncccc23)c1)c1ccccc1 | 1790 nM | –
O=C(Nc1cccc(-c2cc3cccnc3c3ncccc23)c1)c1ccc(Cl)nc1 | 3440 nM | –
Nc1cccc(-c2cc3cccnc3c3ncccc23)c1 | – | Activity [6]: Active
O=C(Nc1cccc(-c2cc3cccnc3c3ncccc23)c1)c1ccc2nccnc2c1 | 800 nM | Activity [7]: Active
Brc1csc(-c2nc3c4cccnc4c4ncccc4c3[nH]2)c1 | 6100 nM | –
COc1ccc(C(=O)Nc2cccc(-c3cc4cccnc4c4ncccc34)c2)cc1 | 1130 nM | –
COc1cccc(C(=O)Nc2cccc(-c3cc4cccnc4c4ncccc34)c2)c1OC | 1200 nM | –
N#Cc1cccc(C(=O)Nc2cccc(-c3cc4cccnc4c4ncccc34)c2)c1 | 2510 nM | –
COc1cc(-c2nc3c4cccnc4c4ncccc4c3[nH]2)cc2c1OCO2 | – | Activity [6]: Active
N#Cc1cccc(-c2csc(-c3nc4c5cccnc5c5ncccc5c4[nH]3)c2)c1 | 6530 nM | –
c1cnc2c(c1)c1nc(-c3cc(-c4ccc5c(c4)OCCO5)cs3)[nH]c1c1cccnc12 | 890 nM | –

Now from value to molecule, other results behind:

IC50 [1] | SMILES | other results
3200 nM | O=[N+]([O-])c1ccc(-c2ccc(-c3nc4c5cccnc5c5ncccc5c4[nH]3)o2)cc1 | –
4470 nM | Brc1ccc(-c2nc3c4cccnc4c4ncccc4c3[nH]2)o1 | –
2130 nM | Oc1ccc(-c2ccc(-c3nc4c5cccnc5c5ncccc5c4[nH]3)o2)cc1 | –
1430 nM | Fc1cccc(-c2ccc(-c3nc4c5cccnc5c5ncccc5c4[nH]3)o2)c1 | –
710 nM | c1cnc2c(c1)c1nc(-c3ccc(-c4ccc5c(c4)OCCO5)o3)[nH]c1c1cccnc12 | –
4900 nM | N#Cc1ccc(-c2ccc(-c3nc4c5cccnc5c5ncccc5c4[nH]3)o2)cc1 | –
3720 nM | Cn1ccc(-c2csc(-c3nc4c5cccnc5c5ncccc5c4[nH]3)c2)n1 | –
580 nM | COc1cccc(-c2csc(-c3nc4c5cccnc5c5ncccc5c4[nH]3)c2)c1 | –
1050 nM | N#Cc1cccc(-c2ccc(-c3nc4c5cccnc5c5ncccc5c4[nH]3)o2)c1 | –
4950 nM | Cn1ccc(-c2ccc(-c3nc4c5cccnc5c5ncccc5c4[nH]3)o2)n1 | –
